Assay results published in US9745267B2, “Compounds as modulators of RORC” (Boehringer Ingelheim International GmbH, priority 2013, dated 2017).

Molecular target: T1, RORγt (hRORC LBD) (Homo sapiens, UniProt P51449)
T1 construct: expressed in transfected cells; host or cells: HEK 293 (transient cotransfection with pGL4.3 luc2P/GAL4UAS/Hygro reporter)
T1 sequence (P51449 269-508 limits assumed): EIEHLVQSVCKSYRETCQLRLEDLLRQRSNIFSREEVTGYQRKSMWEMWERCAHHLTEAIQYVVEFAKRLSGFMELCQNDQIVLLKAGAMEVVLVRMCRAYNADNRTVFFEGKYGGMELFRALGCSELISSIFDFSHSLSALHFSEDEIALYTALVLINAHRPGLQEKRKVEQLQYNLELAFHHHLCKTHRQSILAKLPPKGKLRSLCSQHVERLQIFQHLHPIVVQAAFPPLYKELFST
Experiment: RGA Assay: nuclear receptor transactivation assay, RORγt transactivation of a luciferase reporter
Format: cell-based
Conditions: transiently transfected HEK 293 cells, Gal4DBD hRORC LBD, 20-24 hours incubation
Experimental: A nuclear receptor transactivation assay was performed to quantitate the ability of test compounds to inhibit RORγt transactivation of a luciferase reporter. A similar assay is described in: Khan et al., Bioorganic & Medicinal Chemistry Letters 23 (2013), 532-536. The system uses transiently transfected HEK 293 cells cotransfected with two plasmids (pGL4.3, luc2P/GAL4UAS/Hygro, and pBIND, Gal4DBD hRORC LBD1-3). The positive control is co-transiently transfected with both plasmids, and the negative control contains the pGL4.3 promoter sequence. Assays were assembled in 384 well plates where transiently transfected cells and test compound at varying concentrations were incubated for 20-24 hours. The next day, assays plates are taken out and equilibrated at RT for 20-30 minutes. Bright-Glo™ Luciferase Assay System is used to detect Luciferase production. After addition of Bright GLO detection reagent, the plates were incubated at RT for 20 minutes. The plates were read on an Envision plate reader to measure luminescence signal. The RLU signal is converted to POC relative to control and blank wells.
Compound Dilution Buffer:
Bright Glo Luciferase Assay System: Promega #E2620
Thaw lysis buffer provided in kit, add 100 mL lysis buffer to substrate powder.

| IC50 | Structure (SMILES) |
| --- | --- |
| 840 nM | CNS(=O)(=O)c1ccc(CNC(=O)N2CC3(CCCC3)c3cc(-c4ccc(F)cc4C)ccc32)cc1 [Example 1] |
| 920 nM | CNS(=O)(=O)c1ccc(CNC(=O)N2CC3(CCCC3)c3cc(-c4ccccc4C)ccc32)cc1 [Example 2] |
| 1000 nM | CNS(=O)(=O)c1ccc(CNC(=O)N2CC3(CCCC3)c3cc(-c4cc(C)ccc4C)ccc32)cc1 [Example 3] |
| 1500 nM | CNS(=O)(=O)c1ccc(CNC(=O)N2CC3(CCCC3)c3cc(-c4cccc5cccnc45)ccc32)cc1 [Example 4] |
| 1600 nM | CNS(=O)(=O)c1ccc(CNC(=O)N2CC3(CCCC3)c3cc(-c4cccc(N5CCCC5)c4)ccc32)cc1 [Example 5] |
| 310 nM | CNS(=O)(=O)c1ccc(CNC(=O)N2CC3(CCCC3)c3cc(-c4ccc(OC)cc4C(F)(F)F)ccc32)cc1 [Example 6] |
| 340 nM | CNS(=O)(=O)c1ccc(CNC(=O)N2CC3(CCCC3)c3cc(-c4cc(F)ccc4C(F)(F)F)ccc32)cc1 [Example 7] |
| 420 nM | CNS(=O)(=O)c1ccc(CNC(=O)N2CC3(CCCC3)c3cc(-c4ccc(F)cc4C(F)(F)F)ccc32)cc1 [Example 8] |
| 610 nM | CCc1ccccc1-c1ccc2c(c1)C1(CCCC1)CN2C(=O)NCc1ccc(S(=O)(=O)NC)cc1 [Example 9] |
| 640 nM | CNS(=O)(=O)c1ccc(CNC(=O)N2CC3(CCCC3)c3cc(-c4ccccc4C(F)(F)F)ccc32)cc1 [Example 10] |
| 690 nM | CNS(=O)(=O)c1ccc(CNC(=O)N2CC3(CCCC3)c3cc(-c4ccc(O)cc4C)ccc32)cc1 [Example 11] |
| 780 nM | CCOc1ccc(-c2ccc3c(c2)C2(CCCC2)CN3C(=O)NCc2ccc(S(=O)(=O)NC)cc2)c(C)c1 [Example 12] |
| 840 nM | CNS(=O)(=O)c1ccc(CNC(=O)N2CC3(CCCC3)c3cc(-c4cc(S(=O)(=O)N(C)C)ccc4C)ccc32)cc1 [Example 13] |
| 870 nM | CNS(=O)(=O)c1ccc(CNC(=O)N2CC3(CCCC3)c3cc(-c4ccc(C)cc4C)ccc32)cc1 [Example 14] |
| 940 nM | CNS(=O)(=O)c1ccc(CNC(=O)N2CC3(CCCC3)c3cc(-c4ccc(C#N)cc4C)ccc32)cc1 [Example 15] |
| 960 nM | CNS(=O)(=O)c1ccc(CNC(=O)N2CC3(CCCC3)c3cc(-c4cc(F)ccc4C)ccc32)cc1 [Example 16] |
| 1000 nM | CNS(=O)(=O)c1ccc(CNC(=O)N2CC3(CCCC3)c3cc(-c4c(C)cccc4C)ccc32)cc1 [Example 17] |
| 1000 nM | CNS(=O)(=O)c1ccc(CNC(=O)N2CC3(CCCC3)c3cc(-c4cncnc4C(C)C)ccc32)cc1 [Example 18] |
| 1100 nM | CNS(=O)(=O)c1ccc(CNC(=O)N2CC3(CCCC3)c3cc(-c4ccccc4C(=O)OC)ccc32)cc1 [Example 19] |
| 1100 nM | CNS(=O)(=O)c1ccc(CNC(=O)N2CC3(CCCC3)c3cc(-c4ccccc4COC)ccc32)cc1 [Example 20] |
| 1100 nM | CCOCc1ccccc1-c1ccc2c(c1)C1(CCCC1)CN2C(=O)NCc1ccc(S(=O)(=O)NC)cc1 [Example 21] |

| IC50 | Structure (SMILES) |
| --- | --- |
| 1200 nM | CNS(=O)(=O)c1ccc(CNC(=O)N2CC3(CCCC3)c3cc(-c4cccc(C)c4C)ccc32)cc1 [Example 22] |
| 1200 nM | CNS(=O)(=O)c1ccc(CNC(=O)N2CC3(CCCC3)c3cc(-c4ccc(OC)cc4C)ccc32)cc1 [Example 23] |
| 1300 nM | CCOC(=O)c1ccccc1-c1ccc2c(c1)C1(CCCC1)CN2C(=O)NCc1ccc(S(=O)(=O)NC)cc1 [Example 24] |
| 1300 nM | CNS(=O)(=O)c1ccc(CNC(=O)N2CC3(CCCC3)c3cc(-c4cnccc4C(F)(F)F)ccc32)cc1 [Example 25] |
| 1400 nM | CNS(=O)(=O)c1ccc(CNC(=O)N2CC3(CCCC3)c3cc(-c4cc(OC)c(OC)cc4C(=O)OC)ccc32)cc1 [Example 26] |
| 1700 nM | CNS(=O)(=O)c1ccc(CNC(=O)N2CC3(CCCC3)c3cc(-c4ccccc4C(C)=O)ccc32)cc1 [Example 27] |
| 1200 nM | CCS(=O)(=O)c1ccc(CNC(=O)N2CC3(CCCC3)c3cc(-c4ccc(F)cc4C)ccc32)cc1 [Example 28] |
| 720 nM | CNS(=O)(=O)c1ccc(CNC(=O)N2CC3(CCCC3)c3cc(-c4cc5cnn(C)c5cc4C)ccc32)cc1 [Example 29] |
| 740 nM | CNS(=O)(=O)c1ccc(CNC(=O)N2CC3(CCCC3)c3cc(-c4cc5c(cnn5C)cc4C)ccc32)cc1 [Example 30] |
| 740 nM | CNS(=O)(=O)c1ccc(CNC(=O)N2CC3(CCCC3)c3cc(-c4ccccc4C(F)F)ccc32)cc1 [Example 31] |
| 750 nM | CNS(=O)(=O)c1ccc(CNC(=O)N2CC3(CCCC3)c3cc(-c4c(C)ccc5c4cnn5C)ccc32)cc1 [Example 32] |
| 750 nM | CNS(=O)(=O)c1ccc(CNC(=O)N2CC3(CCCC3)c3cc(-c4ccccc4-c4cnco4)ccc32)cc1 [Example 33] |
| 790 nM | CNS(=O)(=O)c1ccc(CNC(=O)N2CC3(CCCC3)c3cc(-c4c(F)cccc4C#N)ccc32)cc1 [Example 34] |
| 890 nM | CNS(=O)(=O)c1ccc(CNC(=O)N2CC3(CCCC3)c3cc(-c4cc(C(C)=O)ccc4C)ccc32)cc1 [Example 35] |
| 890 nM | CNS(=O)(=O)c1ccc(CNC(=O)N2CC3(CCCC3)c3cc(-c4ccncc4C(F)(F)F)ccc32)cc1 [Example 36] |
| 920 nM | CNS(=O)(=O)c1ccc(CNC(=O)N2CC3(CCCC3)c3cc(-c4ccc(N)cc4C(=O)OC)ccc32)cc1 [Example 37] |
| 970 nM | CNS(=O)(=O)c1ccc(CNC(=O)N2CC3(CCCC3)c3cc(-c4cccc(C#N)c4C)ccc32)cc1 [Example 38] |
| 1000 nM | CNS(=O)(=O)c1ccc(CNC(=O)N2CC3(CCCC3)c3cc(-c4ccc(C)cc4C#N)ccc32)cc1 [Example 39] |
| 1100 nM | CNS(=O)(=O)c1ccc(CNC(=O)N2CC3(CCCC3)c3cc(-c4ccc5c(cnn5C)c4C)ccc32)cc1 [Example 40] |
| 1100 nM | CNS(=O)(=O)c1ccc(CNC(=O)N2CC3(CCCC3)c3cc(-c4cc(C#N)ccc4C)ccc32)cc1 [Example 41] |
| 1100 nM | CNS(=O)(=O)c1ccc(CNC(=O)N2CC3(CCCC3)c3cc(-c4ccc(CO)cc4C)ccc32)cc1 [Example 42] |

| IC50 | Structure (SMILES) |
| --- | --- |
| 1100 nM | CNS(=O)(=O)c1ccc(CNC(=O)N2CC3(CCCC3)c3cc(-c4cccc(F)c4CC#N)ccc32)cc1 [Example 43] |
| 1100 nM | CNc1ccc(-c2ccc3c(c2)C2(CCCC2)CN3C(=O)NCc2ccc(S(=O)(=O)NC)cc2)c(C)c1 [Example 44] |
| 1200 nM | CNS(=O)(=O)c1ccc(CNC(=O)N2CC3(CCCC3)c3cc(-c4ccccc4CC#N)ccc32)cc1 [Example 45] |
| 1300 nM | CNS(=O)(=O)c1ccc(CNC(=O)N2CC3(CCCC3)c3cc(-c4cc(F)ccc4CC#N)ccc32)cc1 [Example 46] |
| 1500 nM | CNS(=O)(=O)c1ccc(CNC(=O)N2CC3(CCCC3)c3cc(-c4cccc5[nH]nc(C)c45)ccc32)cc1 [Example 47] |
| 1600 nM | CNS(=O)(=O)c1ccc(CNC(=O)N2CC3(CCCC3)c3cc(-c4ccc5[nH]ncc5c4C)ccc32)cc1 [Example 48] |
| 1900 nM | CNS(=O)(=O)c1ccc(CNC(=O)N2CC3(CCCC3)c3cc(-c4cnc(OC)cc4C)ccc32)cc1 [Example 49] |
| 1900 nM | CNS(=O)(=O)c1ccc(CNC(=O)N2CC3(CCCC3)c3cc(-c4ccc(NC(C)=O)cc4C)ccc32)cc1 [Example 50] |
| 1100 nM | CCC1(CC)CN(C(=O)NCc2ccc(S(=O)(=O)NC)cc2)c2ccc(-c3ccc(F)cc3C)cc21 [Example 52] |
| 1200 nM | CCC1(C)CN(C(=O)NCc2ccc(S(=O)(=O)NC)cc2)c2ccc(-c3ccc(F)cc3C)cc21 (stereo not shown) [Example 53] |
| 1300 nM | Cc1cc(F)ccc1-c1ccc2c(c1)C1(CCCC1)CN2C(=O)NCc1ccc(S(C)(=O)=O)cc1 [Example 54] |
| 1500 nM | CNS(=O)(=O)c1ccc(CNC(=O)N2CC3(CCCCC3)c3cc(-c4ccc(F)cc4C)ccc32)cc1 [Example 55] |
| 400 nM | CNS(=O)(=O)c1ccc(CNC(=O)N2CC3(CCCC3)c3cc(-c4ccc(O)cc4C(F)(F)F)ccc32)cc1 [Example 56] |
| 780 nM | CCC1(C)CN(C(=O)NCc2ccc(S(=O)(=O)NC)cc2)c2ccc(-c3ccc(OC)cc3C(F)(F)F)cc21 (stereo not shown) [Example 57] |
| 880 nM | CNS(=O)(=O)c1ccc(CNC(=O)N2CC(C)(C)c3cc(-c4ccc(OC)cc4C(F)(F)F)ccc32)cc1 [Example 58] |
| 1500 nM | CNS(=O)(=O)c1ccc(CNC(=O)N2CC(C)(CC(C)C)c3cc(-c4ccc(F)cc4C)ccc32)cc1 (stereo not shown) [Example 59] |
| 250 nM | CNS(=O)(=O)c1ccc(CNC(=O)N2CC3(CCCC3)c3cc(Oc4cc(C(F)(F)F)ccc4C)ccc32)cc1 [Example 60] |
| 730 nM | CNS(=O)(=O)c1ccc(CNC(=O)N2CC3(CCCC3)c3cc(Oc4cccc(OC(F)(F)F)c4)ccc32)cc1 [Example 61] |
| 970 nM | CNS(=O)(=O)c1ccc(CNC(=O)N2CC3(CCCC3)c3cc(Oc4ccc(F)c(OC(F)(F)F)c4)ccc32)cc1 [Example 62] |
